# System: New Zealand rabbits with normal intraocular pressure
# Test: Intraocular pressure reduction experiment in New Zealand rabbits with normal intraocular pressure
# Assay type: in vivo
# Details: for Intraocular pressure in the left eye: left eye (saline or solvent); for Reduction magnitude of intraocular pressure: left minus right eye
# Source text: Experimental Example 2. Intraocular Pressure Reduction Experiment in New Zealand Rabbits with Normal Intraocular Pressure
# Rabbits with normal intraocular pressure were adopted to screen intraocular pressure reduction actions of the potential compounds by eye-drop administration.
# Male New Zealand rabbits, aged 97-127 days, weighted 2.65-3.5 kg, purchased from PizhouDongfang Breeding Co. Ltd.
# The male New Zealand rabbits were randomly divided into 8 rabbits/per group using a computer-generated randomization method Animals in each group were eye-dropped with different test samples in the right eye, and normal saline or solvent in the left eye, and the volume of the administration was both 50 μL/eye. The intraocular pressure of the animals was measured before administration and in 1, 2, 4, 6, 8 and 10 hours after the administration, respectively.
smiles,measurement,setting,value
Cc1cn(COC(=O)c2ccccc2)c(=O)c2cccc(S(=O)(=O)N3CCC(N)C3)c12 (stereo not shown) [Compound 60],Intraocular pressure in the left eye,"2.5 mg/mL group, 1 hour after administration",11.63 mmHg
same,Intraocular pressure in the left eye,"2.5 mg/mL group, 2 hours after administration",11.58 mmHg
same,Intraocular pressure in the left eye,"2.5 mg/mL group, 4 hours after administration",12.83 mmHg
same,Intraocular pressure in the left eye,"2.5 mg/mL group, 6 hours after administration",12.38 mmHg
same,Intraocular pressure in the left eye,"2.5 mg/mL group, 8 hours after administration",12.29 mmHg
same,Intraocular pressure in the left eye,"2.5 mg/mL group, 10 hours after administration",14.33 mmHg
same,Intraocular pressure in the left eye,"2.5 mg/mL group, before administration",12.13 mmHg
same,Intraocular pressure in the right eye,"2.5 mg/mL in right eye, 1 hour after administration",8.38 mmHg
same,Intraocular pressure in the right eye,"2.5 mg/mL in right eye, 2 hours after administration",7.58 mmHg
same,Intraocular pressure in the right eye,"2.5 mg/mL in right eye, 4 hours after administration",9.04 mmHg
same,Intraocular pressure in the right eye,"2.5 mg/mL in right eye, 6 hours after administration",9.88 mmHg
same,Intraocular pressure in the right eye,"2.5 mg/mL in right eye, 8 hours after administration",11.33 mmHg
same,Intraocular pressure in the right eye,"2.5 mg/mL in right eye, 10 hours after administration",13.71 mmHg
same,Intraocular pressure in the right eye,"2.5 mg/mL in right eye, before administration",12.38 mmHg
same,Reduction magnitude of intraocular pressure,"2.5 mg/mL, 1 hour after administration",3.25 mmHg
same,Reduction magnitude of intraocular pressure,"2.5 mg/mL, 2 hours after administration",4 mmHg
same,Reduction magnitude of intraocular pressure,"2.5 mg/mL, 4 hours after administration",3.79 mmHg
same,Reduction magnitude of intraocular pressure,"2.5 mg/mL, 6 hours after administration",2.5 mmHg
same,Reduction magnitude of intraocular pressure,"2.5 mg/mL, 8 hours after administration",0.96 mmHg
same,Reduction magnitude of intraocular pressure,"2.5 mg/mL, 10 hours after administration",0.62 mmHg
same,Reduction magnitude of intraocular pressure,"2.5 mg/mL, before administration",−0.25 mmHg
same,Intraocular pressure in the left eye,"5.0 mg/mL group, 1 hour after administration",11.33 mmHg
same,Intraocular pressure in the left eye,"5.0 mg/mL group, 2 hours after administration",11.42 mmHg
same,Intraocular pressure in the left eye,"5.0 mg/mL group, 4 hours after administration",12.63 mmHg
same,Intraocular pressure in the left eye,"5.0 mg/mL group, 6 hours after administration",12.75 mmHg
same,Intraocular pressure in the left eye,"5.0 mg/mL group, 8 hours after administration",13.29 mmHg
same,Intraocular pressure in the left eye,"5.0 mg/mL group, 10 hours after administration",14.08 mmHg
same,Intraocular pressure in the left eye,"5.0 mg/mL group, before administration",11.79 mmHg
same,Intraocular pressure in the right eye,"5.0 mg/mL in right eye, 1 hour after administration",7.83 mmHg
same,Intraocular pressure in the right eye,"5.0 mg/mL in right eye, 2 hours after administration",7.00 mmHg
same,Intraocular pressure in the right eye,"5.0 mg/mL in right eye, 4 hours after administration",7.79 mmHg
same,Intraocular pressure in the right eye,"5.0 mg/mL in right eye, 6 hours after administration",8.54 mmHg
same,Intraocular pressure in the right eye,"5.0 mg/mL in right eye, 8 hours after administration",10.13 mmHg
same,Intraocular pressure in the right eye,"5.0 mg/mL in right eye, 10 hours after administration",12.54 mmHg
same,Intraocular pressure in the right eye,"5.0 mg/mL in right eye, before administration",11.75 mmHg
same,Reduction magnitude of intraocular pressure,"5.0 mg/mL, 1 hour after administration",3.5 mmHg
same,Reduction magnitude of intraocular pressure,"5.0 mg/mL, 2 hours after administration",4.42 mmHg
same,Reduction magnitude of intraocular pressure,"5.0 mg/mL, 4 hours after administration",4.84 mmHg
same,Reduction magnitude of intraocular pressure,"5.0 mg/mL, 6 hours after administration",4.21 mmHg
same,Reduction magnitude of intraocular pressure,"5.0 mg/mL, 8 hours after administration",3.16 mmHg
same,Reduction magnitude of intraocular pressure,"5.0 mg/mL, 10 hours after administration",1.54 mmHg
same,Reduction magnitude of intraocular pressure,"5.0 mg/mL, before administration",0.04 mmHg
same,Intraocular pressure in the left eye,"10.0 mg/mL group, 1 hour after administration",12.08 mmHg
same,Intraocular pressure in the left eye,"10.0 mg/mL group, 2 hours after administration",12.08 mmHg
same,Intraocular pressure in the left eye,"10.0 mg/mL group, 4 hours after administration",12.96 mmHg
same,Intraocular pressure in the left eye,"10.0 mg/mL group, 6 hours after administration",12.38 mmHg
same,Intraocular pressure in the left eye,"10.0 mg/mL group, 8 hours after administration",13.04 mmHg
same,Intraocular pressure in the left eye,"10.0 mg/mL group, 10 hours after administration",13.38 mmHg
same,Intraocular pressure in the left eye,"10.0 mg/mL group, before administration",11.96 mmHg
same,Intraocular pressure in the right eye,"10.0 mg/mL in right eye, 1 hour after administration",7.96 mmHg
same,Intraocular pressure in the right eye,"10.0 mg/mL in right eye, 2 hours after administration",6.42 mmHg
same,Intraocular pressure in the right eye,"10.0 mg/mL in right eye, 4 hours after administration",7.13 mmHg
same,Intraocular pressure in the right eye,"10.0 mg/mL in right eye, 6 hours after administration",8.00 mmHg
same,Intraocular pressure in the right eye,"10.0 mg/mL in right eye, 8 hours after administration",9.42 mmHg
same,Intraocular pressure in the right eye,"10.0 mg/mL in right eye, 10 hours after administration",10.96 mmHg
same,Intraocular pressure in the right eye,"10.0 mg/mL in right eye, before administration",11.33 mmHg
same,Reduction magnitude of intraocular pressure,"10.0 mg/mL, 1 hour after administration",4.12 mmHg
same,Reduction magnitude of intraocular pressure,"10.0 mg/mL, 2 hours after administration",5.66 mmHg
same,Reduction magnitude of intraocular pressure,"10.0 mg/mL, 4 hours after administration",5.83 mmHg
same,Reduction magnitude of intraocular pressure,"10.0 mg/mL, 6 hours after administration",4.38 mmHg
same,Reduction magnitude of intraocular pressure,"10.0 mg/mL, 8 hours after administration",3.62 mmHg
same,Reduction magnitude of intraocular pressure,"10.0 mg/mL, 10 hours after administration",2.42 mmHg
same,Reduction magnitude of intraocular pressure,"10.0 mg/mL, before administration",0.63 mmHg
same,Intraocular pressure in the left eye,"20 mg/mL group, 1 hour after administration",12.42 mmHg
same,Intraocular pressure in the left eye,"20 mg/mL group, 2 hours after administration",12.96 mmHg
same,Intraocular pressure in the left eye,"20 mg/mL group, 4 hours after administration",13.17 mmHg
same,Intraocular pressure in the left eye,"20 mg/mL group, 6 hours after administration",12.54 mmHg
same,Intraocular pressure in the left eye,"20 mg/mL group, 8 hours after administration",13.17 mmHg
same,Intraocular pressure in the left eye,"20 mg/mL group, 10 hours after administration",13.71 mmHg
same,Intraocular pressure in the left eye,"20 mg/mL group, before administration",12.63 mmHg
same,Intraocular pressure in the right eye,"20 mg/mL in right eye, 1 hour after administration",10.21 mmHg
same,Intraocular pressure in the right eye,"20 mg/mL in right eye, 2 hours after administration",7.17 mmHg
same,Intraocular pressure in the right eye,"20 mg/mL in right eye, 4 hours after administration",7.92 mmHg
same,Intraocular pressure in the right eye,"20 mg/mL in right eye, 6 hours after administration",7.63 mmHg
same,Intraocular pressure in the right eye,"20 mg/mL in right eye, 8 hours after administration",8.83 mmHg
same,Intraocular pressure in the right eye,"20 mg/mL in right eye, 10 hours after administration",10.83 mmHg
same,Intraocular pressure in the right eye,"20 mg/mL in right eye, before administration",12.42 mmHg
same,Reduction magnitude of intraocular pressure,"20 mg/mL, 1 hour after administration",2.21 mmHg
same,Reduction magnitude of intraocular pressure,"20 mg/mL, 2 hours after administration",5.79 mmHg
same,Reduction magnitude of intraocular pressure,"20 mg/mL, 4 hours after administration",5.25 mmHg
same,Reduction magnitude of intraocular pressure,"20 mg/mL, 6 hours after administration",4.91 mmHg
same,Reduction magnitude of intraocular pressure,"20 mg/mL, 8 hours after administration",4.34 mmHg
same,Reduction magnitude of intraocular pressure,"20 mg/mL, 10 hours after administration",2.88 mmHg
same,Reduction magnitude of intraocular pressure,"20 mg/mL, before administration",0.21 mmHg
same,Reduction of intraocular pressure,"concentrations of 2.5, 5 and 10 mg/mL",remarkably significant reduction of intraocular pressure

# Source: patent US12459918B2, “Isoquinolinone derivatives serving as rock protein kinase inhibitors and use thereof” (GUANGZHOU OCUSUN OPHTHALMIC BIOTECHNOLOGY CO., LTD., priority 2019, dated 2025)
